Source: US7371739B2, “Aryl fructose-1,6-bisphosphatase inhibitors” (Metabasis Therapeutics, Inc., priority 2000, dated 2008)

What follows are compounds tested on human liver microsomes (P450 isozymes CYP3A4, CYP1A2, CYP2C9) (assay: Identification of the P450 Isozyme Involved in the Activation). Conditions: 0-100 μM P450 isozyme inhibitor.
Format: in vitro ADME
Description: Prodrugs are evaluated for human microsome-catalyzed conversion to parent compound in the absence and presence of specific inhibitors of three major P450 isozymes: ketoconazole (CYP3A4), furafylline (CYP1A2), and sulfaphenazole (CYP2C9).
Methods: Reaction (0.5 ml@37° C.) consist of 0.2 M KH2PO4, 13 mM glucose-6-phosphate, 2.2 mM NADP^+, 1 unit of glucose-6-phosphate dehydrogenase, 0-2.5 mg/ml human microsomal protein (In Vitro Technologies, In.), […], and 0-100 μM P450 isozyme inhibitor. Reactions are stopped by addition of methanol to a concentration of 60%, filtered ([…]), and lyophilized. Samples are resuspended in HPLC buffer (10 mM phosphate pH 5.5, 2.5 mM octyl-triethylammonium), loaded onto a YMC C8 HPLC column (250×4.6 mm), and eluted with a methanol gradient to 80%. Formuation of parent drug is confirmed by co-elution with an authentic parent drug standard.
Results: Prodrug is converted readily to parent drug in human liver microsomes.

Compound | inhibition of formation of parent drug from prodrug by P450 isozyme inhibitor
CC(=O)N1CCN(c2ccc(OCC3COC(Cn4ccnc4)(c4ccc(Cl)cc4Cl)O3)cc2)CC1 (stereo not drawn) [Ketoconazole] | inhibit the formation of parent drugs in a dose-dependent fashion
Cc1nc2c([nH]1)c(=O)n(C)c(=O)n2Cc1ccco1 [fusafylline] | no significant inhibition
Nc1ccc(S(=O)(=O)Nc2ccnn2-c2ccccc2)cc1 [sulfaphenazole] | no significant inhibition

These compounds were tested against T1, rat liver FBPase (Rattus norvegicus, UniProt P19112) (assay: Inhibition of Rat Liver FBPase). Conditions: assay identical to human liver FBPase; read-out: IC50 for AMP, rat liver FBPase.
T1 construct: made in house; host or cells: E. coli BL21
T1 sequence (P19112 2-363 limits assumed): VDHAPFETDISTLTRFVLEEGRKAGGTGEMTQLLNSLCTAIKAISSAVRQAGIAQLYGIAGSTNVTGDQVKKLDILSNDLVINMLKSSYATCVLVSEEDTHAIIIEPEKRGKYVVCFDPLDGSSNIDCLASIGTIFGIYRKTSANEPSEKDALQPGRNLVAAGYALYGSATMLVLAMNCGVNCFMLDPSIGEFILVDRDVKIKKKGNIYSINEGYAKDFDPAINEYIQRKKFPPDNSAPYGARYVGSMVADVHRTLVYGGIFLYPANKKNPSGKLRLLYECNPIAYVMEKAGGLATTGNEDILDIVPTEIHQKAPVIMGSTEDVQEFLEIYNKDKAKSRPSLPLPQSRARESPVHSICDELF
Format: biochemical
Description: Recombinant FBPase is purified as described (El-Maghrabi, M. R., and Pilkis, S. J. (1991) Biochem. Biophys. Res. Commun. 176, 137-144) The enzyme assay is identical to that described above for human liver FBPase. The IC50 for AMP is 20 μM.

IC50 | Compound
20 µM | Nc1ncnc2c1ncn2[C@@H]1O[C@H](COP(=O)(O)O)[C@@H](O)[C@H]1O [AMP, reference compound]

These compounds were tested against T2, human liver FBPase (Homo sapiens, UniProt P09467) (assay: Inhibition of Human Liver FBPase). Conditions: not given.
T2 sequence (P09467 2-338 limits assumed): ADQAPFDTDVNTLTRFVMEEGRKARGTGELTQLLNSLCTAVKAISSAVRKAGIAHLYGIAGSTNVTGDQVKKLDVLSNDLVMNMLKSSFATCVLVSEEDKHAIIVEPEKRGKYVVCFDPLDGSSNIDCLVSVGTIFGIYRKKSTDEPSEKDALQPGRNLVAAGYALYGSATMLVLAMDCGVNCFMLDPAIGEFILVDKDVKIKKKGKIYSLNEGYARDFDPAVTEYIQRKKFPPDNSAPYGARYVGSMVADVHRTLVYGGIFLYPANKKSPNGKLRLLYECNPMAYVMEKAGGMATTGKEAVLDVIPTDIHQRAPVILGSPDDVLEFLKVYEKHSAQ

Compound | IC50
O=[N+]([O-])c1cc(-c2ccc(P(=O)(O)O)o2)cc([N+](=O)[O-])c1 [Compound 1.01, 5-(3,5-Dinitrophenyl)-2-furanphosphonic Acid] | 0.31 µM
Nc1c(-c2ccc(P(=O)(O)O)o2)cc([N+](=O)[O-])cc1[N+](=O)[O-] [Compound 1.02] | 1.8 µM
COc1ccc(Cl)cc1-c1ccc(P(=O)(O)O)o1 [Compound 1.03] | 0.5 µM
O=C(NCP(=O)(O)O)c1ccc(Br)o1 [Compound 8.01, N-(Phosphonomethyl)-5-bromofuran-2-carboxamide] | 4 µM
O=C(OCP(=O)(O)O)c1ccc(Br)o1 [Compound 11.02] | 6.4 µM
O=[N+]([O-])c1cc(COCP(=O)(O)O)cc([N+](=O)[O-])c1 [Compound 13.02] | 9 µM
O=P(O)(O)C#Cc1ccccc1 [Compound 16.01, 1-Phosphono-2-phenylacetylene] | 89 µM

The remaining lines, values ahead:

IC50 | Compound
2.2 µM | O=P(O)(O)c1ccc(-c2ccc(F)cc2)o1 [Compound 2.01, 5-(4-Fluorophenyl)-2-furanphosphonic Acid]
3 µM | O=P(O)(O)c1ccc(-c2ccc(Cl)cc2Cl)o1 [Compound 2.02]
5.5 µM | Nc1cc(-c2ccc(P(=O)(O)O)o2)ccc1Br [Compound 3.01, 5-(4-Bromo-3-aminophenyl)-2-furanphosphonic Acid]
3 µM | COc1ccc(CNc2ccccc2)cc1-c1ccc(P(=O)(O)O)o1 [Compound 4.46]
0.14 µM | COc1ccc(CNc2ccc(O)cc2)cc1-c1ccc(P(=O)(O)O)o1 [Compound 4.48]
0.32 µM | COc1ccc(CNc2ccc(N)cc2)cc1-c1ccc(P(=O)(O)O)o1 [Compound 4.49]
6.5 µM | COc1ccc(CNc2ccc(NC(C)=O)cc2)cc1-c1ccc(P(=O)(O)O)o1 [Compound 4.50]
12 µM | COc1ccc(CN(C(C)=O)c2ccc(N)cc2)cc1-c1ccc(P(=O)(O)O)o1 [Compound 4.51]
4 µM | O=C(NCP(=O)(O)O)c1cc([N+](=O)[O-])cc([N+](=O)[O-])c1 [Compound 8.14]
2.8 µM | COc1cc(Cl)ccc1C(=O)OCP(=O)(O)O [Compound 11.01, Phosphonomethyl 4-Chloro-2-methoxybenzoate]
4.2 µM | COc1c(Br)cccc1C(=O)OCP(=O)(O)O [Compound 12.01, Phosphonomethyl 3-Bromo-2-methoxybenzoate]
11 µM | COc1cc(COCP(=O)(O)O)ccc1Br [Compound 13.01, 4-Bromo-3-methoxyphenylmethoxymethylphosphonic acid]

Same assay, conditions: read-out: IC50 for AMP, human liver FBPase; text value for reference AMP

IC50 | Compound
1 µM | Nc1ncnc2c1ncn2[C@@H]1O[C@H](COP(=O)(O)O)[C@@H](O)[C@H]1O [AMP, reference compound]
